Reference: US10221177B2 (HYDRA BIOSCIENCES, INC., priority 2014, dated 2019)

Target: human TRPA1 (Homo sapiens (Human), UniProt O75762)
Experiment: In vitro inhibition of human TRPA1, whole cell patch configuration
Assay type: cell-based
Conditions: current activation 10 μM AITC, tested concentrations 320 pM to 3.2 μM, read-out: hTRPA1 IC50
Outline: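 Whole-cell patch clamp, bath 150 mM NaCl, 10 mM HEPES, 1 mM EGTA, 3 mM MgCl2, pH 7.4 (sometimes 2 mM CaCl2, 1 mM MgCl2). Currents recorded continuously at −60 mV or by 400 ms ramps from −40 mV holding every 4 s; inward/outward currents taken at −80/80 mV, with controlled-temperature focal perfusion.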

human TRPA1, sequence (O75762 whole entry): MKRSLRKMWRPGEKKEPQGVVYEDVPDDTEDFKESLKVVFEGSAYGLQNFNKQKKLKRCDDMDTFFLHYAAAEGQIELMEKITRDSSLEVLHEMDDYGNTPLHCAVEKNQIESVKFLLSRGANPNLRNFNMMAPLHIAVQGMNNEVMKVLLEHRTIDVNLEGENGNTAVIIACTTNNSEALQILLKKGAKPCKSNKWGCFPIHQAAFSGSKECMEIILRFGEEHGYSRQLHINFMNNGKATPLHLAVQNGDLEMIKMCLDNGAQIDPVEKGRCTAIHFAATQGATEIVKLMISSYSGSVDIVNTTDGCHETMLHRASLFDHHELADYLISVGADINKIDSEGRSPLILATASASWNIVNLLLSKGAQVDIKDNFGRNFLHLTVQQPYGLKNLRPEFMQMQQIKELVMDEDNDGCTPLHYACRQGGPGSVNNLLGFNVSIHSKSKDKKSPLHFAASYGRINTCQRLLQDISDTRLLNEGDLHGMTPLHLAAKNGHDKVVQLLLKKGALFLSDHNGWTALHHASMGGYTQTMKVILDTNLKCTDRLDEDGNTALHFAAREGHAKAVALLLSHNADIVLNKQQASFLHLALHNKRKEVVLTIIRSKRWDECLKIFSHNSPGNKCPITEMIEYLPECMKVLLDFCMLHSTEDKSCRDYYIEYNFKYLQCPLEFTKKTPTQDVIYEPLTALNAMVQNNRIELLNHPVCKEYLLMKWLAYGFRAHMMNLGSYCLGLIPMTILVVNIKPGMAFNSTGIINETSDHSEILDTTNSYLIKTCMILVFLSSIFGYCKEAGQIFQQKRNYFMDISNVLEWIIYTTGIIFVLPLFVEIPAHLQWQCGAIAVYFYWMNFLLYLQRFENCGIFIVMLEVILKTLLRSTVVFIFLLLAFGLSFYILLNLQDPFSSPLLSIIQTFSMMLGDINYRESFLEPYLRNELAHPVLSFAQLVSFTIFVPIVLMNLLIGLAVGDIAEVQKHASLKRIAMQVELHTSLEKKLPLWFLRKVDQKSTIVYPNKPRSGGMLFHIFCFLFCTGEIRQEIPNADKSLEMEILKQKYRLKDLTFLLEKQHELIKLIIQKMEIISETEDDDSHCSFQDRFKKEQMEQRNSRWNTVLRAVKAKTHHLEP

SMILES | IC50
CC#CCn1c(=O)c2c(ncn2[C@@H](C)C(=O)Nc2ccnc(-c3cnc(N4CC5CC5C4)nc3)n2)n(C)c1=O (stereo partly drawn) [Compound 173, (2S)—N-(2′-(3-azabicyclo[3.1.0]hexan-3-yl)-[2,5′-bipyrimidin]-4-yl)-2-(1-(but-2-yn-1-yl)-3-methyl-2,6-dioxo-2,3-dihydro-1H-purin-7(6H)-yl)propanamide] | 6 nM
CC(=O)Cn1c(=O)c2c(ncn2CC(=O)Nc2cccc(-c3cnc(N4CCC[C@H]4C(F)(F)F)nc3)n2)n(C)c1=O [Compound 183, (S)-2-(3-methyl-2,6-dioxo-1-(2-oxopropyl)-1,2,3,6-tetrahydropurin-7-yl)-N-(6-(2-(2-(trifluoromethyl)pyrrolidin-1-yl)pyrimidin-5-yl)pyridin-2-yl)acetamide] | 3 nM
CC(=O)Cn1c(=O)c2c(ncn2[C@@H](C)C(=O)Nc2csc(-c3ccc(Cl)c(Cl)c3)n2)n(C)c1=O [Compound 20, (S)—N-(2-(3,4-dichlorophenyl)thiazol-4-yl)-2-(3-methyl-2,6-dioxo-1-(2-oxopropyl)-2,3-dihydro-1H-purin-7(6H)-yl)propanamide] | 2 nM
C[C@@H](C(=O)Nc1cccc(-c2cnc(N3CCC[C@H]3C(F)(F)F)nc2)n1)n1cnc2c1c(=O)n(CC#N)c(=O)n2C [Compound 45, (S)-2-(1-(cyanomethyl)-3-methyl-2,6-dioxo-2,3-dihydro-1H-purin-7(6H)-yl)-N-(6-(2-((S)-2-(trifluoromethyl)pyrrolidin-1-yl)pyrimidin-5-yl)pyridin-2-yl)propanamide] | 4 nM
CCN(c1ccc(NC(=O)Cn2cnc3c2c(=O)n(Cc2cc(C)on2)c(=O)n3C)cc1)C(F)(F)F [Compound 211, N-(4-(ethyl(trifluoromethyl)amino)phenyl)-2-(3-methyl-1-((5-methylisoxazol-3-yl)methyl)-2,6-dioxo-2,3-dihydro-1H-purin-7(6H)-yl)acetamide] | > 1000 nM
C[C@@H](C(=O)Nc1cccc(-c2ccc(C(F)(F)F)nc2)n1)n1cnc2c1c(=O)n(Cc1ccccn1)c(=O)n2C [Compound 1, (2S)-2-(3-methyl-2,6-dioxo-1-(pyridin-2-ylmethyl)-1,2,3,6-tetrahydropurin-7-yl)-N-(6-(6-(trifluoromethyl)pyridin-3-yl)pyridin-2-yl)propanamide] | 28 nM
CC(C(=O)Nc1ccnc(-c2cnc(N3CC4CC4C3)nc2)n1)n1cnc2c1c(=O)n(CC#N)c(=O)n2C (stereo not shown) [Compound 24, N-(2′-(3-azabicyclo[3.1.0]hexan-3-yl)-2,5′-bipyrimidin-4-yl)-2-(1-(cyanomethyl)-3-methyl-2,6-dioxo-2,3-dihydro-1H-purin-7(6H)-yl)propanamide] | 10 nM
Cc1cc(Cn2c(=O)c3c(ncn3CC(=O)Nc3cccc(N4CC5C(C4)C5(F)F)n3)n(C)c2=O)no1 (stereo not shown) [Compound 213, N-(6-(6,6-difluoro-3-azabicyclo[3.1.0]hexan-3-yl)pyridin-2-yl)-2-(3-methyl-1-((5-methylisoxazol-3-yl)methyl)-2,6-dioxo-2,3-dihydro-1H-purin-7(6H)-yl)acetamide] | 141 nM
CC(=O)Cn1c(=O)c2c(ncn2[C@@H](C)C(=O)Nc2csc(-c3cnc(C)c(Cl)c3)n2)n(C)c1=O [Compound 81, (S)—N-(2-(5-chloro-6-methylpyridin-3-yl)thiazol-4-yl)-2-(3-methyl-2,6-dioxo-1-(2-oxopropyl)-2,3-dihydro-1H-purin-7(6H)-yl)propanamide] | 10 nM
Cn1c(=O)n(Cc2ccccn2)c(=O)c2c1ncn2CC(=O)Nc1csc(-c2cnc(C(F)(F)F)nc2)n1 [Compound 191, 2-(3-methyl-2,6-dioxo-1-(pyridin-2-ylmethyl)-2,3-dihydro-1H-purin-7(6H)-yl)-N-(2-(2-(trifluoromethyl)pyrimidin-5-yl)thiazol-4-yl)acetamide] | 51 nM
Cc1noc(Cn2c(=O)c3c(ncn3CC(=O)Nc3cncc(-c4cnc(C(F)(F)F)c(C)c4)n3)n(C)c2=O)n1 [Compound 230, 2-(3-methyl-1-((3-methyl-1,2,4-oxadiazol-5-yl)methyl)-2,6-dioxo-2,3-dihydro-1H-purin-7(6H)-yl)-N-(6-(5-methyl-6-(trifluoromethyl)pyridin-3-yl)pyrazin-2-yl)acetamide] | 14 nM
C[C@@H](C(=O)Nc1csc(-c2ccc(N3CC4CC4C3)nc2)n1)n1cnc2c1c(=O)n(CC#N)c(=O)n2C (stereo partly drawn) [Compound 64, (2S)—N-(2-(6-(3-azabicyclo[3.1.0]hexan-3-yl)pyridin-3-yl)thiazol-4-yl)-2-(1-(cyanomethyl)-3-methyl-2,6-dioxo-2,3-dihydro-1H-purin-7(6H)-yl)propanamide] | 2 nM
C[C@@H](C(=O)Nc1cncc(-c2cnc(C(F)(F)F)nc2)n1)n1cnc2c1c(=O)n(CC#N)c(=O)n2C [Compound 22, (S)-2-(1-(cyanomethyl)-3-methyl-2,6-dioxo-2,3-dihydro-1H-purin-7(6H)-yl)-N-(6-(2-(trifluoromethyl)pyrimidin-5-yl)pyrazin-2-yl)propanamide] | 203 nM
C[C@@H](C(=O)Nc1cccc(-c2cnc(C(F)(F)F)nc2)n1)n1cnc2c1c(=O)n(CC1CCO1)c(=O)n2C (stereo partly drawn) [Compound 88, (2S)-2-(3-methyl-1-(oxetan-2-ylmethyl)-2,6-dioxo-2,3-dihydro-1H-purin-7(6H)-yl)-N-(6-(2-(trifluoromethyl)pyrimidin-5-yl)pyridin-2-yl)propanamide] | 894 nM
C[C@@H](C(=O)Nc1csc(-c2cnc(N3CCC[C@H]3C(F)(F)F)nc2)n1)n1cnc2c1c(=O)n(CC#N)c(=O)n2C [Compound 28, (S)-2-(1-(cyanomethyl)-3-methyl-2,6-dioxo-2,3-dihydro-1H-purin-7(6H)-yl)-N-(2-(2-((S)-2-(trifluoromethyl)pyrrolidin-1-yl)pyrimidin-5-yl)thiazol-4-yl)propanamide] | 1 nM
CCN(CC)c1ncc(-c2nc(NC(=O)[C@H](C)n3cnc4c3c(=O)n(Cc3cc(C)on3)c(=O)n4C)cs2)cn1 [Compound 36, (S)—N-(2-(2-(diethylamino)pyrimidin-5-yl)thiazol-4-yl)-2-(3-methyl-1-((5-methylisoxazol-3-yl)methyl)-2,6-dioxo-2,3-dihydro-1H-purin-7(6H)-yl)propanamide] | 2 nM
Cc1cc(Cn2c(=O)c3c(ncn3[C@@H](C)C(=O)Nc3cccc(-c4nc(=O)o[nH]4)n3)n(C)c2=O)no1 [Compound 93, (S)-2-(3-methyl-1-((5-methylisoxazol-3-yl)methyl)-2,6-dioxo-2,3-dihydro-1H-purin-7(6H)-yl)-N-(6-(5-oxo-2,5-dihydro-1,2,4-oxadiazol-3-yl)pyridin-2-yl)propanamide] | > 3200 nM
Cc1cc(-c2cncc(NC(=O)[C@H](C)n3cnc4c3c(=O)n(Cc3ccon3)c(=O)n4C)n2)cnc1C(F)(F)F [Compound 137, (S)-2-(1-(isoxazol-3-ylmethyl)-3-methyl-2,6-dioxo-2,3-dihydro-1H-purin-7(6H)-yl)-N-(6-(5-methyl-6-(trifluoromethyl)pyridin-3-yl)pyrazin-2-yl)propanamide] | 13 nM
Cn1c(=O)n(Cc2ccccn2)c(=O)c2c1ncn2CC(=O)Nc1cccc(-c2ccc(F)c(F)c2)n1 [Compound 187, N-(6-(3,4-difluorophenyl)pyridin-2-yl)-2-(3-methyl-2,6-dioxo-1-(pyridin-2-ylmethyl)-2,3-dihydro-1H-purin-7(6H)-yl)acetamide] | 74 nM
